The values that follow come from patent US12285392B2, “Method for modulating metabolism” (Brightseed, Inc., priority 2018, dated 2025).

The test system of one data set is diet-induced obese mice. The data set can be described thus: Efficacy and tolerability in diet-induced obese mice. The class given is in vivo. How it is done: Alkaline Phosphatase (ALP) Quantitation. Increased levels of ALP in blood are considered indicative of liver function abnormalities. Thus, ALP was assayed in accordance with known methods (Kiselyuk, et al. (2012) Chem. Biol. 19(7):806-818). Briefly, prior to sacrifice, blood was drawn and analyzed using a Vet Scan blood analyzer, measuring alkaline phosphatase (ALP, IU/L), alanine aminotransferase (ALT, IU/L), gamma glutamyl transferase (GGT, IU/L), bile acids (BA, μmol/L), total bilirubin (TBIL, mg/dL), albumin (ALB, g/dL), blood urea nitrogen (BUN, mg/dL), and cholesterol (CHOL, mg/dL).
Triglyceride (TG) Quantitation. TG quantity was assayed using a Triglyceride Colorimetric Assay Kit (Cayman Chemicals; Ann Arbor, MI) according to the manufacturer's instructions.
Lipid Droplet Size Analysis. All slides were scanned at a magnification of 20× using the Aperio Scanscope FL system (Aperio Technologies Inc.; Vista, CA). The appropriate dyes were assigned and illumination levels were calibrated using a preset procedure; the parameters were saved and applied to all slides. The acquired digital images represented whole tissue sections. Sections were evaluated for image quality. All acquired images were subsequently placed in dedicated project folders, and stored on a designated local server. Selected areas of the slides were selected using Aperio Imagescope (version 12 Aperio Technologies Inc.). For analysis, slides were viewed, whole tissue areas were selected and analyzed using the web-based Image Scope viewer. Slides were quantified using the ‘Color Deconvolution v9’ algorithm for oil redo staining (version 11 Aperio Technologies Inc.). The algorithm was optimized using a preset procedure to maximize the strong red color positive oil droplets signal to noise ratio and the subsequent macro was saved and applied to all slides.
HNF4α Immunostaining in Organ Samples. Samples were harvested from mice, fixed in 4% paraformaldehyde and embedded in paraffin or O.C.T. freezing media (Sakura Finetek; Torrance, CA) Slides of 5 μm thickness were washed four times with PBS and treated with 0.3% Triton™ in PBS for 10 minutes. Antigen retrieval was carried out with CitriSolv™ (Fisher Scientific; Waltham, MA) for 10 minutes in sub-boiling temperature. After washing with PBS for 10 minutes, slides were incubated in blocking solution with 5% normal donkey serum (Jackson Immuno Research; West Grove, PA) for 60 minutes at room temperature. Cells were fixed in 4% paraformaldehyde for 15 minutes on 4° C. and washed with PBS, treated with 0.3% Triton™ in PBS for 10 minutes and blocked as previously described for slide samples.
Primary Antibodies. HNF4α antibodies were used (#sc-6556, Santa Cruz Biotechnology; Santa Cruz, CA and #3113, Cell Signaling Technology; Danvers, MA). For fluorescent imaging, samples were incubated with ALEXA FLOUR® 488 green-fluorescent dye or Rhodamine labeled anti-mouse, rabbit or goat and nuclei were counterstained with DAPI (4′,6-diamidino-2-phenylindole) Controls using secondary antibodies alone were used to ensure specificity of immunostaining. Fluorescently labeled sections were analyzed with a conventional inverted microscope (Olympus, PlanFl 40×/0.60) or with a confocal microscope equipped with a krypton/argon laser.
The experiments were performed to establish feeding and treatment regimen, dosing and administration regimens, as well as to provide evidence of beneficial effects of N-trans-caffeoyltyramine on glucose and lipid homeostasis, hepatic steatosis, β-cell function and hepatocyte function. Twelve mice (10 weeks old) were fed a high-fat diet for four weeks to induce obesity. After four weeks, and while on the high-fat diet, six mice were administered 5% DMSO or 120 mg/kg N-trans-caffeoyltyramine twice a day intraperitoneally for 14 days. One hour after the last i.p. injection of DMSO or N-trans-caffeoyl tyramine, the animals were sacrificed and blood and organ (liver, kidney, gut and pancreas) samples were collected. […]

In a further data set the target is T1, HNF4α (Homo sapiens, UniProt P41235).
T1 construct: endogenous in cells; host or cells: T6PNE cells
T1 sequence (P41235 1-474): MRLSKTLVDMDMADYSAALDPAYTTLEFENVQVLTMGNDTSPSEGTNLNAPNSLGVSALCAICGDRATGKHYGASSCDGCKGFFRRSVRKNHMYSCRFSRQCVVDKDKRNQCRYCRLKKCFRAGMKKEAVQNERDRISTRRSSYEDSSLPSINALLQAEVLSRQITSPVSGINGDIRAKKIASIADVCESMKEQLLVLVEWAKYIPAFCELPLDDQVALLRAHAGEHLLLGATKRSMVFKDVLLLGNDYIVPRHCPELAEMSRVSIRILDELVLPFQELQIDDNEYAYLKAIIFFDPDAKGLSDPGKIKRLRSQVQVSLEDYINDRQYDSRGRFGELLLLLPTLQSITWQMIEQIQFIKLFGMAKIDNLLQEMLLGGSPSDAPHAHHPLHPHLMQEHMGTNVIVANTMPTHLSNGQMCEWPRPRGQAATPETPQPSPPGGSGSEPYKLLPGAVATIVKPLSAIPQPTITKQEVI
The data set can be described thus: Insulin promoter activity assay in T6PNE cells (HNF4α activity). It is filed as cell-based. The protocol:
Insulin Promoter Activity. T6PNE cells (Kiselyuk, et al. (2012) Chem Biol. 19(7):806-818; Kiselyuk, et al. (2010) J. Biomol. Screen 15(6):663-70) are seeded at 2000 cells per well in 384-well tissue culture plates in the presence of 1 μM tamoxifen and 0.03 mM palmitate. After a 24-hour incubation, a compound or extract of the invention is added to the cells. Forty-eight hours after compound or extract addition, cells are fixed in 4% paraformaldehyde and stained with DAPI. Blue (DAPI) and green (human insulin promoter driving GFP) channels are imaged.
Inhibition of HNF4α GFP Expression. Using the insulin promoter assay described herein, activity of HNF4α was assessed in the presence of BI-6015 (0, 2.5, 5 μM), a known antagonist of HNF4α (Kiselyuk, et al. (2012) Chem. Biol. 19(7):806-818), in combination with N-trans-caffeoyltyramine (0, 5, 10, 20 μM).
Given the role of HNF4α in maintaining a heal thy metabolism in humans, test compounds were screened for activity as HNF4α agonists (either direct or indirect effects). Using a known insulin promoter-reporter assay, Kiselyuk and colleagues (2010. J. Biomol. Screen 15(6):663-70), screened a library of compounds for activity to promote insulin activation. […] The OTC promoter is known to be responsive to HNF4α in transient transfection assays (Inoue, et al. (2002) J. Biol. Chem. 277:25257-65).

Each structure is given as a SMILES string.

Consider `O=C(/C=C/c1ccc(O)c(O)c1)NCCc1ccc(O)cc1` [N-trans-caffeoyltyramine], for which the “Lipid accumulation in the liver” value in the data set on diet-induced obese mice (120 mg/kg twice a day i.p. for 14 days) is “decreased”. The “Weight loss, sickness or abnormal behaviors compared to control” value in the data set with diet-induced obese mice (120 mg/kg twice a day i.p. for 14 days, high-fat diet mice) is listed as “None of the treated mice exhibited weight loss, sickness, or abnormal behaviors”. For the same compound, the “Lipid droplet sizes in the liver” value in the data set on diet-induced obese mice (120 mg/kg twice a day i.p. for 14 days, FIG. 8) is on record as “reduced”. The “HNF4α expression in the liver” value in the data set on diet-induced obese mice (120 mg/kg twice a day i.p. for 14 days, P=0.0042, FIG. 7) is recorded as “significantly increased”. In the data set with diet-induced obese mice (FIG. 12), the “HNF4α expression in intestines” value is listed as “increased”. The “Levels of alkaline phosphatase” value with diet-induced obese mice (blood, 120 mg/kg twice a day i.p. for 14 days, FIG. 9) is recorded as “significantly reduced”. Further, in the data set on diet-induced obese mice (compared to DMSO control mice, FIG. 11), the “HNF4α expression in the pancreas” value is given as “increased”. For the same compound, the Levels of triglycerides result with diet-induced obese mice (liver, 120 mg/kg twice a day i.p. for 14 days, FIG. 10) is recorded as “significantly reduced”. The “Potency in activating HNF4α relative to Alverine” value on HNF4α (FIG. 1, insulin promoter activity dose-response) is listed as “roughly an order-of-magnitude more potent than Alverine”. Moreover, the “HNF4α modulation in screening” value at HNF4α (screening in the HNF4α assay) is given as “able to act as HNF4α modulators”.
